We go through 4 molecules from US20040121994A1, “Novel amides that activate soluble guanylate cyclase” (priority 2002, published 2004).

Data set [1] addresses T1, soluble guanylate cyclase (sGC), α1 and β1 subunits of guanylate cyclase expressed in Sf9 cells (Homo sapiens, UniProt Q02108+Q02153).
T1 construct: made in house; host or cells: Sf9 insect cells (baculovirus co-infection)
T1 sequence (Q02108 1-690): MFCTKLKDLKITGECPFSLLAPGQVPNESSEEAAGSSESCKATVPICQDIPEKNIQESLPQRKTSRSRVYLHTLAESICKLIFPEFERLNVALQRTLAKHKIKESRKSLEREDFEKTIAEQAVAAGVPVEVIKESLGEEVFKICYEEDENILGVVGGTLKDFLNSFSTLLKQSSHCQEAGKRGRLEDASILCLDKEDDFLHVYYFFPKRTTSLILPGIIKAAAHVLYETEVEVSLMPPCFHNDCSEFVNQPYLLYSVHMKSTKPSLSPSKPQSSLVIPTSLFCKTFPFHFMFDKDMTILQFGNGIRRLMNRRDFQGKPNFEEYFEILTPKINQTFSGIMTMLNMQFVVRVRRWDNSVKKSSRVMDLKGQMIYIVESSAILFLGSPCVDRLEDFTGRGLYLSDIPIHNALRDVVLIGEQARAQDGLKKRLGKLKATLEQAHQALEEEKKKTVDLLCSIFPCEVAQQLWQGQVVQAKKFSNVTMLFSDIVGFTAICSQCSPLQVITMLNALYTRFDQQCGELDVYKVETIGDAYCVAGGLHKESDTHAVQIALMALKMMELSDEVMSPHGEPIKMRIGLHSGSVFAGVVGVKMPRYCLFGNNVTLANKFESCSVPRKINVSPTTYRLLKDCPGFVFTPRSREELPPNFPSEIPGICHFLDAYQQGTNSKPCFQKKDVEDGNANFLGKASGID
T1 sequence (Q02153 1-619): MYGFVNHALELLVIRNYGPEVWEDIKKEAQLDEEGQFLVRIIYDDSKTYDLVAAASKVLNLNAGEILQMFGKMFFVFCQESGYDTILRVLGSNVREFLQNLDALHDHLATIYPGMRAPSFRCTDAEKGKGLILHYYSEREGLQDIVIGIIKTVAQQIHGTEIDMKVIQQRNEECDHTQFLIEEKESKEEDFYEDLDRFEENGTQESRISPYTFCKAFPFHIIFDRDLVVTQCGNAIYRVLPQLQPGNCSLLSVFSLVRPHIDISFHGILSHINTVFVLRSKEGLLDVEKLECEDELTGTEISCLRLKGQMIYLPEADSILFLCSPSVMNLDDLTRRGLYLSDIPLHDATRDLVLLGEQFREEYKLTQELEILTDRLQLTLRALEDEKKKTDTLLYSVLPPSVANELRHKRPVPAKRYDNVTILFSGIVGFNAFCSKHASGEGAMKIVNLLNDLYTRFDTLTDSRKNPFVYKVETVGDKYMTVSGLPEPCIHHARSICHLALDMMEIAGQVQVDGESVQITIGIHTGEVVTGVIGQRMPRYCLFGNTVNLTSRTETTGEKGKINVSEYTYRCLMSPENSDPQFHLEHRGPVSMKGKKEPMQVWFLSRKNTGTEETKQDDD
The experiment in a line: Guanylate cyclase assay (formation of cyclic GMP from GTP). It counts as biochemical. As to conditions: for Mean activation at 100 μM: (activity of compound at 100 μM with 1 μM SNP)−(activity of compound at 100 μM)/(activity of SNP at 1 μM)−(basal activity of sGC); for Mean efficacy of compound combined with 1 μM of SNP, [%]: compound at 100 μM with 1 μM sodium nitro prusside (SNP); for Emax at 100 µM: read-out: Mean basal efficacy of compound alone at 100 μM, [%]. In short, it runs like this: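 Sf9 high-speed supernatant with human sGC α1/β1 converted 1 mM GTP to cGMP over 15 min at 37 °C (50 mM Tris pH 7.6, 4 mM MgCl2, 0.5 mM IBMX); cGMP by enzyme immunoassay. Compounds at 100 μM, with or without 1 μM SNP; activity expressed relative to 100 μM YC-1 (no SNP) as 100%.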

The mark [2] stands for this setting: normalized with the activity of 100 μM YC-1 (without SNP) as 100%.
Setting [3] is: compound at 100 μM without SNP, normalized with the activity of 100 μM YC-1 (without SNP) as 100%.

As to `O=C(/C=C/c1ccccc1Sc1ccc(Cl)cc1Cl)NCCCCO` [Example 29, (2E)-3-{2-[(2,4-dichlorophenyl)thio]phenyl}-N-(4-hydroxybutyl)acrylamide], the melting point is 68 to 71 °C. Further, the “Mean activation at 100 μM” value in data set [1] came to 2.9. Also, the “Mean efficacy of compound combined with 1 μM of SNP, [%]” value (“Mean efficacy … [%]” for short) in data set [1] (setting [2]) stood at 110%. Also, the Emax at 100 µM in data set [1] (setting [3]) worked out at 69%.
In the case of `O=C(/C=C/c1ccccc1Sc1ccc(Cl)cc1)NC1CCC(O)CC1` (stereo not drawn) [Example 30, (2E)-3-{2-[(4-chlorophenyl)thio]phenyl}-N-(4-hydroxycyclohexyl)acrylamide], the melting point was in the range of 86 to 88 °C. Also, the “Mean activation at 100 μM” value in data set [1] came out at 3.4. Moreover, the “Mean efficacy … [%]” value in data set [1] (setting [2]) was found to be 289%. Besides, the Emax at 100 µM in data set [1] (setting [3]) came out at 66%.
On to `COc1ccc(Sc2ccccc2/C=C/C(=O)NCCCCO)cc1` [Example 43, (2E)-N-(4-hydroxybutyl)-3-{2-[(4-methoxyphenyl)thio]phenyl}acrylamide], for which the melting point lay within 134 to 136 °C. The “Mean activation at 100 μM” value in data set [1] is recorded as 9.5. Besides, the “Mean efficacy … [%]” value in data set [1] (setting [2]) worked out at 160%. The Emax at 100 µM in data set [1] (setting [3]) worked out at 54%.
As for `OCc1ccc(-c2nn(Cc3ccccc3)c3ccccc23)o1` [YC-1, 1-Benzyl-3-hydroxymethyl-2-furylindazole, reference compound], the “Mean activation at 100 μM” value in data set [1] is given as 2.7. For the same molecule, in data set [1] (setting [2]), the “Mean efficacy … [%]” value turned out to be 224%. The “Mean basal efficacy of compound alone at 100 μM, [%]” value in data set [1] (setting [3]) is 100%.

In general, melting point refers to the temperature, or range, at which the solid turns liquid.
